Data taken from ChEMBL document CHEMBL2440002, “The application of Heck reaction in the synthesis of guaianolide sesquiterpene lactones derivatives selectively inhibiting resistant acute leukemic cells” (Bioorg Med Chem Lett, 2013).

What was measured:
HL-60 = experiment: Cytotoxicity against human HL60 cells after 72 hrs by MTT assay; assay type: functional, cell-based; settings: HL-60, 72 h
[1] = Cytotoxicity against human HL60/A cells after 72 hrs by MTT assay; assay type: functional, cell-based
[2] = Induction of apoptosis in human HL60/A cells assessed as viable cells at 50 uM after 24 hrs by annexin V/propidium iodide based flow cytometry (reference value: 95.2 %); assay type: functional; settings: read-out: Activity
[3] = Induction of apoptosis in human HL60/A cells assessed as early apoptotic cells at 50 uM after 24 hrs by annexin V/propidium iodide based flow cytometry (reference value: 2.66 %); assay type: functional
[4] = Induction of apoptosis in human HL60/A cells assessed as late apoptotic cells at 50 uM after 24 hrs by annexin V/propidium iodide based flow cytometry (reference value: 1.82 %); assay type: functional
[5] = Induction of apoptosis in human HL60/A cells assessed as necrotic cells at 50 uM after 24 hrs by annexin V/propidium iodide based flow cytometry (reference value: 0.282 %); assay type: functional
[6] = Induction of apoptosis in human HL60/A cells assessed as viable cells at 20 uM after 24 hrs by annexin V/propidium iodide based flow cytometry (reference value: 95.2 %); assay type: functional; settings: read-out: Activity
[7] = Induction of apoptosis in human HL60/A cells assessed as early apoptotic cells at 20 uM after 24 hrs by annexin V/propidium iodide based flow cytometry (reference value: 2.66 %); assay type: functional
[8] = Induction of apoptosis in human HL60/A cells assessed as late apoptotic cells at 20 uM after 24 hrs by annexin V/propidium iodide based flow cytometry (reference value: 1.82 %); assay type: functional
[9] = Induction of apoptosis in human HL60/A cells assessed as necrotic cells at 20 uM after 24 hrs by annexin V/propidium iodide based flow cytometry (reference value: 0.282 %); assay type: functional
[10] = Induction of apoptosis in human HL60/A cells assessed as viable cells at 10 uM after 24 hrs by annexin V/propidium iodide based flow cytometry (reference value: 95.2 %); assay type: functional; settings: read-out: Activity
[11] = Induction of apoptosis in human HL60/A cells assessed as late apoptotic cells at 10 uM after 24 hrs by annexin V/propidium iodide based flow cytometry (reference value: 1.82 %); assay type: functional
[12] = Induction of apoptosis in human HL60/A cells assessed as necrotic cells at 10 uM after 24 hrs by annexin V/propidium iodide based flow cytometry (reference value: 0.282 %); assay type: functional
[13] = Induction of apoptosis in human HL60/A cells assessed as early apoptotic cells at 10 uM after 24 hrs by annexin V/propidium iodide based flow cytometry (reference value: 2.66 %); assay type: functional

SMILES | IC50 (HL-60) [µM] | IC50 [1] [µM] | other results
C=C1CC[C@H]2C(=C)CC[C@H]3/C(=C\c4ccc(F)cc4)C(=O)O[C@@H]3[C@@H]12 | > 50 | > 50 | –
CC[Si](CC)(CC)O[C@]1(C)CCC2=C(C)CC[C@H]3/C(=C/c4ccccc4F)C(=O)O[C@@H]3[C@H]21 | 32 | 7.8 | –
CC1=C2CC[C@@](C)(O)[C@@H]2[C@H]2OC(=O)/C(=C\c3ccc(Cl)cc3)[C@@H]2CC1 | > 50 | > 50 | –
CC1=C2CC[C@@](C)(O)[C@@H]2[C@H]2OC(=O)/C(=C\c3ccc(F)cc3)[C@@H]2CC1 | > 50 | > 50 | –
CC1=C2CC[C@@](C)(O)[C@@H]2[C@H]2OC(=O)/C(=C\c3ccccc3F)[C@@H]2CC1 | > 50 | > 50 | –
CC1=C2CC[C@@](C)(O)[C@@H]2[C@H]2OC(=O)/C(=C\c3cccc(F)c3)[C@@H]2CC1 | > 50 | > 50 | –
CCc1ccc(/C=C2\C(=O)O[C@H]3[C@H]2CCC(C)=C2CC[C@@](C)(O)[C@@H]23)cc1 | > 50 | > 50 | –
C=C1CC[C@H]2C(=C)CC[C@H]3/C(=C\c4ccc(Cl)cc4)C(=O)O[C@@H]3[C@@H]12 | > 50 | > 50 | –
C=C1CC[C@H]2C(=C)CC[C@H]3/C(=C\c4ccccc4F)C(=O)O[C@@H]3[C@@H]12 | > 50 | > 50 | –
C=C1CC[C@H]2C(=C)CC[C@H]3/C(=C\c4cccc(C(F)(F)F)c4)C(=O)O[C@@H]3[C@@H]12 | 24 | 17 | –
C=C1CC[C@H]2C(=C)CC[C@H]3/C(=C\c4ccc(CC)cc4)C(=O)O[C@@H]3[C@@H]12 | > 50 | > 50 | –
C=C1CC[C@H]2C(=C)CC[C@H]3/C(=C\c4cc(OC)c(OC)c(OC)c4)C(=O)O[C@@H]3[C@@H]12 | > 50 | > 50 | –
C=C1CC[C@H]2C(=C)CC[C@H]3/C(=C\c4ccccc4)C(=O)O[C@@H]3[C@@H]12 | > 50 | > 50 | –
C=C1CC[C@H]2C(=C)CC[C@H]3/C(=C/c4ccc(Cl)cc4)C(=O)O[C@@H]3[C@@H]12 | > 50 | > 50 | –
C=C1CC[C@H]2C(=C)CC[C@H]3/C(=C/c4ccc(F)cc4)C(=O)O[C@@H]3[C@@H]12 | > 50 | > 50 | –
C=C1CC[C@H]2C(=C)CC[C@H]3/C(=C/c4ccccc4F)C(=O)O[C@@H]3[C@@H]12 | > 50 | > 50 | –
C=C1CC[C@H]2C(=C)CC[C@H]3/C(=C/c4cccc(C(F)(F)F)c4)C(=O)O[C@@H]3[C@@H]12 | > 50 | > 50 | –
C=C1CC[C@H]2C(=C)CC[C@H]3/C(=C/c4ccc(CC)cc4)C(=O)O[C@@H]3[C@@H]12 | > 50 | > 50 | –

SMILES | IC50 (HL-60) [µM] | IC50 [1] [µM] | other results
C=C1CC[C@H]2C(=C)CC[C@H]3/C(=C/c4cc(OC)c(OC)c(OC)c4)C(=O)O[C@@H]3[C@@H]12 | > 50 | > 50 | –
C=C1CC[C@H]2C(=C)CC[C@H]3/C(=C/c4ccccc4)C(=O)O[C@@H]3[C@@H]12 | > 50 | > 50 | –
C=C1C(=O)O[C@H]2[C@H]1CCC(C)=C1CC[C@@](C)(O[Si](CC)(CC)CC)[C@@H]12 | 8.4 | 7.2 | –
CC[Si](CC)(CC)O[C@]1(C)CCC2=C(C)CC[C@H]3/C(=C\c4ccc(Cl)cc4)C(=O)O[C@@H]3[C@H]21 | > 50 | > 50 | –
CC[Si](CC)(CC)O[C@]1(C)CCC2=C(C)CC[C@H]3/C(=C\c4ccc(F)cc4)C(=O)O[C@@H]3[C@H]21 | > 50 | > 50 | –
CC[Si](CC)(CC)O[C@]1(C)CCC2=C(C)CC[C@H]3/C(=C\c4ccccc4F)C(=O)O[C@@H]3[C@H]21 | > 50 | > 50 | –
CC[Si](CC)(CC)O[C@]1(C)CCC2=C(C)CC[C@H]3/C(=C\c4cccc(F)c4)C(=O)O[C@@H]3[C@H]21 | > 50 | > 50 | –
CCc1ccc(/C=C2/C(=O)O[C@H]3[C@H]2CCC(C)=C2CC[C@@](C)(O[Si](CC)(CC)CC)[C@@H]23)cc1 | 45 | 9.2 | –
CC[Si](CC)(CC)O[C@]1(C)CCC2=C(C)CC[C@H]3/C(=C/c4ccc(Cl)cc4)C(=O)O[C@@H]3[C@H]21 | > 50 | > 50 | –
CC[Si](CC)(CC)O[C@]1(C)CCC2=C(C)CC[C@H]3/C(=C/c4ccc(F)cc4)C(=O)O[C@@H]3[C@H]21 | > 50 | > 50 | –
CC[Si](CC)(CC)O[C@]1(C)CCC2=C(C)CC[C@H]3/C(=C/c4cccc(F)c4)C(=O)O[C@@H]3[C@H]21 | 52 | 10 | –
CCc1ccc(/C=C2\C(=O)O[C@H]3[C@H]2CCC(C)=C2CC[C@@](C)(O[Si](CC)(CC)CC)[C@@H]23)cc1 | > 50 | 19 | –
CC1=C2CC[C@@](C)(O)[C@@H]2[C@H]2OC(=O)/C(=C/c3ccc(Cl)cc3)[C@@H]2CC1 | > 50 | > 50 | –
CC1=C2CC[C@@](C)(O)[C@@H]2[C@H]2OC(=O)/C(=C/c3ccc(F)cc3)[C@@H]2CC1 | > 50 | > 50 | –
CC1=C2CC[C@@](C)(O)[C@@H]2[C@H]2OC(=O)/C(=C/c3ccccc3F)[C@@H]2CC1 | > 50 | > 50 | –
CC1=C2CC[C@@](C)(O)[C@@H]2[C@H]2OC(=O)/C(=C/c3cccc(F)c3)[C@@H]2CC1 | > 50 | 32 | –
CCc1ccc(/C=C2/C(=O)O[C@H]3[C@H]2CCC(C)=C2CC[C@@](C)(O)[C@@H]23)cc1 | 31 | 6.2 | viability at 50 µM [2]: 0.94%; Activity [3]: 1.5%; Activity [4]: 85.9%; Activity [5]: 11.7%; viability at 20 µM [6]: 66%; Activity [7]: 4.66%; Activity [8]: 23.8%; Activity [9]: 5.51%; viability at 10 µM [10]: 89.2%; Activity [11]: 6.61%; Activity [12]: 1.03%; Activity [13]: 3.14%
COc1cccc2c1C(=O)c1c(O)c3c(c(O)c1C2=O)C[C@@](O)(C(=O)CO)C[C@@H]3O[C@H]1C[C@H](N)[C@H](O)[C@H](C)O1 [DOXORUBICIN] | 0.07 | 7.8 | –
